Measured values reported in the supplement of paper PMC10307832.

Key:
Test in all cases: relative viability (nuclei count vs DMSO), 5 days (fraction); higher = more cells survive
AZD6482 + Alpelisib = compound: Cc1cc([C@@H](C)Nc2ccccc2C(=O)O)c2nc(N3CCOCC3)cc(=O)n2c1 [AZD6482] + Cc1nc(NC(=O)N2CCC[C@H]2C(N)=O)sc1-c1ccnc(C(C)(C)C(F)(F)F)c1 [Alpelisib] (partner 2 µM)
How it was run: (§1)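 Each reported value is a median over duplicate plates. It expresses relative viability: treated-well nuclei count divided by vehicle-well nuclei count. Lung cancer cell lines in 1536-well plates were dosed by pin tool a day after seeding, alone with one drug or with a fixed anchor-drug dose plus five library-drug doses (not always all listed) in √10 steps, and nuclei were counted after 5 days.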

[1] = compound: COc1cc2nc(N3CCCN(C)CC3)nc(NC3CCN(Cc4ccccc4)CC3)c2cc1OC + C[C@]1(O)C[C@@H](c2nc(-c3ccc4ccc(-c5ccccc5)nc4c3)c3c(N)nccn32)C1 [Linsitinib] (partner 1 µM)
How it was run: as §1

[2] = compound: COc1cc2nc(N3CCCN(C)CC3)nc(NC3CCN(Cc4ccccc4)CC3)c2cc1OC + N=C(N)NC(=N)NCCc1ccccc1 [Phenformin] (partner 250 µM)
How it was run: as §1

[3] = compound: COc1cc2nc(N3CCCN(C)CC3)nc(NC3CCN(Cc4ccccc4)CC3)c2cc1OC + O=C(CCCCCCC(=O)Nc1ccccc1)NO [Vorinostat] (partner 1 µM)
How it was run: as §1

UMC-11 gave a relative viability (AZD6482 + Alpelisib; first compound 0.08 µM) of 1.01, a relative viability (AZD6482 + Alpelisib; first compound 0.253 µM) of 0.938 and a relative viability (AZD6482 + Alpelisib; first compound 0.8 µM) of 0.984. The relative viability (AZD6482 + Alpelisib; first compound 2.53 µM) was 0.693, the relative viability (AZD6482 + Alpelisib; first compound 8 µM) was 0.965 and the relative viability ([1]; first compound 0.2 µM) was 1.03. For the same cell line, the relative viability ([1]; first compound 0.6325 µM) was 1.03, the relative viability ([1]; first compound 2 µM) was 1.05 and the relative viability ([1]; first compound 6.325 µM) was 1.04. The relative viability ([2]; first compound 0.2 µM) was 0.322, the relative viability ([2]; first compound 0.6325 µM) was 0.346 and the relative viability ([2]; first compound 2 µM) was 0.352. The relative viability ([2]; first compound 6.325 µM) was 0.243, the relative viability ([3]; first compound 0.2 µM) was 0.361 and the relative viability ([3]; first compound 0.6325 µM) was 0.453. The relative viability ([3]; first compound 2 µM) was 0.431 and the relative viability ([3]; first compound 6.325 µM) was 0.317.
